Measurements taken from PubChem BioAssay (NCI).
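Values below derive from 48-hour exposures of cells grown in 96-well plates, with endpoints linearly interpolated between the two concentrations bracketing the appropriate inhibition level. TGI is the concentration that stops growth completely.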

Assays:
Assay in all cases: NCI tumour cell line growth inhibition, 48 h
HCT-116 colon = tested on: HCT-116 colon
SNB-78 CNS = tested on: SNB-78 CNS
K-562 leukemia = tested on: K-562 leukemia
SR leukemia = tested on: SR leukemia
SF-268 CNS = tested on: SF-268 CNS
OVCAR-8 ovarian = tested on: OVCAR-8 ovarian
SW-620 colon = tested on: SW-620 colon
CCRF-CEM leukemia = tested on: CCRF-CEM leukemia
NCI-H23 lung = tested on: NCI-H23 lung
NCI-H522 lung = tested on: NCI-H522 lung
SK-MEL-28 melanoma = tested on: SK-MEL-28 melanoma
SNB-19 CNS = tested on: SNB-19 CNS
A498 renal = tested on: A498 renal
DLD-1 colon = tested on: DLD-1 colon
M19-MEL melanoma = tested on: M19-MEL melanoma
TK-10 renal = tested on: TK-10 renal
ACHN renal = tested on: ACHN renal
NCI-H460 lung = tested on: NCI-H460 lung
SK-OV-3 ovarian = tested on: SK-OV-3 ovarian
HT29 colon = tested on: HT29 colon
786-0 renal = tested on: 786-0 renal
SK-MEL-2 melanoma = tested on: SK-MEL-2 melanoma
SF-295 CNS = tested on: SF-295 CNS
OVCAR-5 ovarian = tested on: OVCAR-5 ovarian
SN12C renal = tested on: SN12C renal
LXFL 529 NSCLC = tested on: LXFL 529 NSCLC
SF-539 CNS = tested on: SF-539 CNS
U251 CNS = tested on: U251 CNS
DMS 273 small cell lung = tested on: DMS 273 small cell lung
DMS 114 small cell lung = tested on: DMS 114 small cell lung
HOP-18 NSCLC = tested on: HOP-18 NSCLC
UACC-62 melanoma = tested on: UACC-62 melanoma
HL-60(TB) leukemia = tested on: HL-60(TB) leukemia
UACC-257 melanoma = tested on: UACC-257 melanoma
UO-31 renal = tested on: UO-31 renal
XF 498 CNS = tested on: XF 498 CNS
KM12 colon = tested on: KM12 colon
OVCAR-4 ovarian = tested on: OVCAR-4 ovarian
COLO 205 colon = tested on: COLO 205 colon
M14 melanoma = tested on: M14 melanoma
MOLT-4 leukemia = tested on: MOLT-4 leukemia
RPMI-8226 leukemia = tested on: RPMI-8226 leukemia
LOX IMVI melanoma = tested on: LOX IMVI melanoma
HCT-15 colon = tested on: HCT-15 colon
IGROV1 ovarian = tested on: IGROV1 ovarian
HCC-2998 colon = tested on: HCC-2998 colon
CAKI-1 renal = tested on: CAKI-1 renal
NCI-H226 lung = tested on: NCI-H226 lung
HOP-62 NSCLC = tested on: HOP-62 NSCLC
RXF 393 renal = tested on: RXF 393 renal
KM20L2 colon = tested on: KM20L2 colon
A549 NSCLC = tested on: A549 NSCLC
HOP-92 NSCLC = tested on: HOP-92 NSCLC
SK-MEL-5 melanoma = tested on: SK-MEL-5 melanoma
OVCAR-3 ovarian = tested on: OVCAR-3 ovarian
SNB-75 CNS = tested on: SNB-75 CNS
EKVX NSCLC = tested on: EKVX NSCLC
MALME-3M melanoma = tested on: MALME-3M melanoma

## Cn1c(=O)c2c3ccccc3c(C(=O)c3ccccc3)n2c2ccccc21
HCT-116 colon
  TGI: > 100 µM
SNB-78 CNS
  TGI: > 100 µM
K-562 leukemia
  TGI: > 100 µM
SR leukemia
  TGI: > 100 µM
SF-268 CNS
  TGI: > 100 µM
OVCAR-8 ovarian
  TGI: > 100 µM
SW-620 colon
  TGI: > 100 µM
CCRF-CEM leukemia
  TGI: > 31.6 µM
NCI-H23 lung
  TGI: > 100 µM
NCI-H522 lung
  TGI: > 100 µM
SK-MEL-28 melanoma
  TGI: > 100 µM
SNB-19 CNS
  TGI: > 100 µM
A498 renal
  TGI: > 100 µM
DLD-1 colon
  TGI: > 100 µM
M19-MEL melanoma
  TGI: > 100 µM
TK-10 renal
  TGI: > 96.6 µM
ACHN renal
  TGI: > 100 µM
NCI-H460 lung
  TGI: > 100 µM
SK-OV-3 ovarian
  TGI: > 100 µM
HT29 colon
  TGI: > 100 µM
786-0 renal
  TGI: > 100 µM
SK-MEL-2 melanoma
  TGI: > 100 µM
SF-295 CNS
  TGI: > 100 µM
OVCAR-5 ovarian
  TGI: > 100 µM
SN12C renal
  TGI: > 100 µM
LXFL 529 NSCLC
  TGI: > 100 µM
SF-539 CNS
  TGI: > 100 µM
U251 CNS
  TGI: > 100 µM
DMS 273 small cell lung
  TGI: > 100 µM
DMS 114 small cell lung
  TGI: > 100 µM
HOP-18 NSCLC
  TGI: > 100 µM
UACC-62 melanoma
  TGI: > 30.1 µM
HL-60(TB) leukemia
  TGI: > 100 µM
UACC-257 melanoma
  TGI: > 100 µM
UO-31 renal
  TGI: > 100 µM
XF 498 CNS
  TGI: > 100 µM
KM12 colon
  TGI: > 100 µM
OVCAR-4 ovarian
  TGI: > 100 µM
COLO 205 colon
  TGI: > 100 µM
M14 melanoma
  TGI: > 100 µM
MOLT-4 leukemia
  TGI: > 100 µM
RPMI-8226 leukemia
  TGI: > 100 µM
LOX IMVI melanoma
  TGI: > 100 µM
HCT-15 colon
  TGI: > 100 µM
IGROV1 ovarian
  TGI: > 100 µM
HCC-2998 colon
  TGI: > 100 µM
CAKI-1 renal
  TGI: > 100 µM
NCI-H226 lung
  TGI: > 100 µM
HOP-62 NSCLC
  TGI: > 100 µM
RXF 393 renal
  TGI: > 100 µM
KM20L2 colon
  TGI: > 100 µM
A549 NSCLC
  TGI: > 100 µM
HOP-92 NSCLC
  TGI: > 84.2 µM
SK-MEL-5 melanoma
  TGI: > 100 µM
OVCAR-3 ovarian
  TGI: > 100 µM
SNB-75 CNS
  TGI: 15 µM
EKVX NSCLC
  TGI: > 100 µM
MALME-3M melanoma
  TGI: > 100 µM

## C=C(Nc1ccc(OC)cc1OC)C(=O)Cc1cccc[n+]1[O-]
HCT-116 colon
  TGI: > 100 µM
SNB-78 CNS
  TGI: > 100 µM
K-562 leukemia
  TGI: > 100 µM
SR leukemia
  TGI: > 100 µM
SF-268 CNS
  TGI: > 100 µM
OVCAR-8 ovarian
  TGI: > 100 µM
SW-620 colon
  TGI: > 100 µM
CCRF-CEM leukemia
  TGI: > 100 µM
NCI-H23 lung
  TGI: > 100 µM
NCI-H522 lung
  TGI: > 100 µM
SK-MEL-28 melanoma
  TGI: > 100 µM
SNB-19 CNS
  TGI: > 100 µM
A498 renal
  TGI: > 100 µM
DLD-1 colon
  TGI: > 100 µM
M19-MEL melanoma
  TGI: > 100 µM
TK-10 renal
  TGI: > 100 µM
ACHN renal
  TGI: > 100 µM
NCI-H460 lung
  TGI: > 100 µM
SK-OV-3 ovarian
  TGI: > 100 µM
HT29 colon
  TGI: > 100 µM
786-0 renal
  TGI: > 100 µM
SK-MEL-2 melanoma
  TGI: > 100 µM
SF-295 CNS
  TGI: > 100 µM
OVCAR-5 ovarian
  TGI: > 100 µM
SN12C renal
  TGI: > 100 µM
LXFL 529 NSCLC
  TGI: > 100 µM
SF-539 CNS
  TGI: > 100 µM
U251 CNS
  TGI: > 100 µM
DMS 273 small cell lung
  TGI: > 100 µM
DMS 114 small cell lung
  TGI: > 100 µM
HOP-18 NSCLC
  TGI: > 100 µM
UACC-62 melanoma
  TGI: > 100 µM
HL-60(TB) leukemia
  TGI: > 100 µM
UACC-257 melanoma
  TGI: > 100 µM
UO-31 renal
  TGI: > 100 µM
XF 498 CNS
  TGI: > 100 µM
KM12 colon
  TGI: > 100 µM
OVCAR-4 ovarian
  TGI: > 100 µM
COLO 205 colon
  TGI: > 100 µM
M14 melanoma
  TGI: > 100 µM
MOLT-4 leukemia
  TGI: > 100 µM
RPMI-8226 leukemia
  TGI: > 100 µM
LOX IMVI melanoma
  TGI: > 100 µM
HCT-15 colon
  TGI: > 100 µM
IGROV1 ovarian
  TGI: > 100 µM
HCC-2998 colon
  TGI: > 100 µM
CAKI-1 renal
  TGI: > 100 µM
NCI-H226 lung
  TGI: > 100 µM
HOP-62 NSCLC
  TGI: > 100 µM
RXF 393 renal
  TGI: > 100 µM
KM20L2 colon
  TGI: > 100 µM
A549 NSCLC
  TGI: > 100 µM
HOP-92 NSCLC
  TGI: > 100 µM
SK-MEL-5 melanoma
  TGI: > 100 µM
OVCAR-3 ovarian
  TGI: > 100 µM
SNB-75 CNS
  TGI: > 100 µM
EKVX NSCLC
  TGI: > 100 µM
MALME-3M melanoma
  TGI: > 100 µM

## CC#CC(OCC)(OCC)OCC
HCT-116 colon
  TGI: > 100 µM
SNB-78 CNS
  TGI: > 100 µM
K-562 leukemia
  TGI: > 100 µM
SR leukemia
  TGI: > 100 µM
SF-268 CNS
  TGI: > 100 µM
OVCAR-8 ovarian
  TGI: > 100 µM
CCRF-CEM leukemia
  TGI: > 100 µM
NCI-H23 lung
  TGI: > 100 µM
NCI-H522 lung
  TGI: > 100 µM
SK-MEL-28 melanoma
  TGI: > 100 µM
SNB-19 CNS
  TGI: > 100 µM
A498 renal
  TGI: > 100 µM
DLD-1 colon
  TGI: > 100 µM
M19-MEL melanoma
  TGI: > 100 µM
TK-10 renal
  TGI: > 100 µM
ACHN renal
  TGI: > 100 µM
NCI-H460 lung
  TGI: > 100 µM
SK-OV-3 ovarian
  TGI: > 100 µM
HT29 colon
  TGI: > 100 µM
786-0 renal
  TGI: > 100 µM
SK-MEL-2 melanoma
  TGI: > 100 µM
SF-295 CNS
  TGI: > 100 µM
OVCAR-5 ovarian
  TGI: > 100 µM
SN12C renal
  TGI: > 100 µM
LXFL 529 NSCLC
  TGI: > 100 µM
SF-539 CNS
  TGI: > 100 µM
U251 CNS
  TGI: > 100 µM
DMS 273 small cell lung
  TGI: 49.1 µM
DMS 114 small cell lung
  TGI: 74.3 µM
HOP-18 NSCLC
  TGI: > 100 µM
UACC-62 melanoma
  TGI: > 100 µM
HL-60(TB) leukemia
  TGI: > 100 µM
UACC-257 melanoma
  TGI: > 100 µM
UO-31 renal
  TGI: > 100 µM
XF 498 CNS
  TGI: > 100 µM
KM12 colon
  TGI: > 100 µM
OVCAR-4 ovarian
  TGI: > 100 µM
COLO 205 colon
  TGI: > 100 µM
M14 melanoma
  TGI: > 100 µM
MOLT-4 leukemia
  TGI: > 100 µM
RPMI-8226 leukemia
  TGI: > 100 µM
LOX IMVI melanoma
  TGI: 39.9 µM
HCT-15 colon
  TGI: > 100 µM
IGROV1 ovarian
  TGI: > 100 µM
HCC-2998 colon
  TGI: > 100 µM
CAKI-1 renal
  TGI: > 100 µM
NCI-H226 lung
  TGI: > 100 µM
HOP-62 NSCLC
  TGI: > 100 µM
RXF 393 renal
  TGI: > 100 µM
KM20L2 colon
  TGI: > 100 µM
A549 NSCLC
  TGI: > 100 µM
HOP-92 NSCLC
  TGI: > 100 µM
SK-MEL-5 melanoma
  TGI: > 100 µM
OVCAR-3 ovarian
  TGI: > 100 µM
SNB-75 CNS
  TGI: > 100 µM
EKVX NSCLC
  TGI: > 100 µM
MALME-3M melanoma
  TGI: > 100 µM
